Experimental data published in the supplement of paper PMC10307832.

Assays:
Assay in all cases: relative viability (nuclei count vs DMSO), 5 days (fraction); higher = more cells survive
[1] = system: NCI-H727
Outline: (§1)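 The day after seeding in 1536-well plates, lung cancer cell lines were treated by pin tool with a single drug, or with a fixed anchor-drug dose together with five library-drug doses (not always all listed) in √10 steps. After 5 days, a combined fix-and-stain solution (final 0.05% Triton X-100, 1% formaldehyde, 1 ug/ml Hoechst) was added. Nuclei counted on 4× images gave relative viability as treated counts over vehicle counts, reported as the median of duplicate plates.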

[2] = system: NCI-H838
Outline: as §1

[3] = system: LK-2
Outline: as §1

[4] = system: NCI-H1355
Outline: as §1

[5] = system: SW 1573
Outline: as §1

[6] = system: UMC-11
Outline: as §1

[7] = system: NCI-H1734
Outline: as §1

[8] = system: NCI-H2228
Outline: as §1

[9] = system: NCI-H520
Outline: as §1

[10] = system: NCI-H2347
Outline: as §1

[11] = system: 201T
Outline: as §1

[12] = system: NCI-H2009
Outline: as §1

[13] = system: LOU-NH91
Outline: as §1

[14] = system: HCC-44
Outline: as §1

[15] = system: NCI-H1650
Outline: as §1

[16] = system: NCI-H1755
Outline: as §1

[17] = system: NCI-H358
Outline: as §1

[18] = system: HCC-366
Outline: as §1

[19] = system: HCC-78
Outline: as §1

[20] = system: ABC-1
Outline: as §1

[21] = system: NCI-H2405
Outline: as §1

[22] = system: BEN
Outline: as §1

[23] = system: NCI-H1666
Outline: as §1

`O=C(O)CCCCC(CCSCc1ccccc1)SCc1ccccc1` (centres undefined) [CPI-613] + CS(=O)(=O)N1CCN(Cc2cc3nc(-c4cccc5[nH]ncc45)nc(N4CCOCC4)c3s2)CC1 [Pictilisib] (partner 1 µM) was tested, and the relative viability ([1]; first compound 5 µM) was 0.359, the relative viability ([1]; first compound 15.81 µM) was 0.348 and the relative viability ([1]; first compound 50 µM) was 0.348. The relative viability ([1]; first compound 158.11 µM) was 0.33, the relative viability ([1]; first compound 500 µM) was 0.0223 and the relative viability ([2]; first compound 5 µM) was 0.483. The relative viability ([2]; first compound 15.81 µM) was 0.289, the relative viability ([2]; first compound 50 µM) was 0.392 and the relative viability ([2]; first compound 158.11 µM) was 0.299. The relative viability ([2]; first compound 500 µM) was 0.0565, the relative viability ([3]; first compound 5 µM) was 0.583 and the relative viability ([3]; first compound 15.81 µM) was 0.494. It also gave a relative viability ([3]; first compound 50 µM) of 0.535, a relative viability ([3]; first compound 158.11 µM) of 0.554 and a relative viability ([3]; first compound 500 µM) of 0.472. The relative viability ([4]; first compound 5 µM) was 0.417, the relative viability ([4]; first compound 15.81 µM) was 0.389 and the relative viability ([4]; first compound 50 µM) was 0.374. It also gave a relative viability ([4]; first compound 158.11 µM) of 0.29, a relative viability ([4]; first compound 500 µM) of 0.0921 and a relative viability ([5]; first compound 5 µM) of 0.532. It also gave a relative viability ([5]; first compound 15.81 µM) of 0.452, a relative viability ([5]; first compound 50 µM) of 0.554 and a relative viability ([5]; first compound 158.11 µM) of 0.46. For the same compound, the relative viability ([5]; first compound 500 µM) was 0.481, the relative viability ([6]; first compound 5 µM) was 0.804 and the relative viability ([6]; first compound 15.81 µM) was 0.698. It also gave a relative viability ([6]; first compound 50 µM) of 0.496, a relative viability ([6]; first compound 158.11 µM) of 0.642 and a relative viability ([6]; first compound 500 µM) of 0.104. The relative viability ([7]; first compound 5 µM) was 0.466, the relative viability ([7]; first compound 15.81 µM) was 0.383 and the relative viability ([7]; first compound 50 µM) was 0.434. It also gave a relative viability ([7]; first compound 158.11 µM) of 0.274, a relative viability ([7]; first compound 500 µM) of 0.113 and a relative viability ([8]; first compound 5 µM) of 0.429. It also gave a relative viability ([8]; first compound 15.81 µM) of 0.382, a relative viability ([8]; first compound 50 µM) of 0.596 and a relative viability ([8]; first compound 158.11 µM) of 0.374. For the same compound, the relative viability ([8]; first compound 500 µM) was 0.0181, the relative viability ([9]; first compound 5 µM) was 0.271 and the relative viability ([9]; first compound 15.81 µM) was 0.279. For the same compound, the relative viability ([9]; first compound 50 µM) was 0.286, the relative viability ([9]; first compound 158.11 µM) was 0.172 and the relative viability ([9]; first compound 500 µM) was 0.134. For the same compound, the relative viability ([10]; first compound 5 µM) was 0.524, the relative viability ([10]; first compound 15.81 µM) was 0.397 and the relative viability ([10]; first compound 50 µM) was 0.705. For the same compound, the relative viability ([10]; first compound 158.11 µM) was 0.144, the relative viability ([10]; first compound 500 µM) was 0.171 and the relative viability ([11]; first compound 5 µM) was 0.722. It also gave a relative viability ([11]; first compound 15.81 µM) of 0.654, a relative viability ([11]; first compound 50 µM) of 0.667 and a relative viability ([11]; first compound 158.11 µM) of 0.665. The relative viability ([11]; first compound 500 µM) was 0.647, the relative viability ([12]; first compound 5 µM) was 0.855 and the relative viability ([12]; first compound 15.81 µM) was 0.675. For the same compound, the relative viability ([12]; first compound 50 µM) was 0.722, the relative viability ([12]; first compound 158.11 µM) was 0.0928 and the relative viability ([12]; first compound 500 µM) was 0.0311. The relative viability ([13]; first compound 5 µM) was 0.499, the relative viability ([13]; first compound 15.81 µM) was 0.519 and the relative viability ([13]; first compound 50 µM) was 0.541. The relative viability ([13]; first compound 158.11 µM) was 0.532, the relative viability ([13]; first compound 500 µM) was 0.511 and the relative viability ([14]; first compound 5 µM) was 0.546. It also gave a relative viability ([14]; first compound 15.81 µM) of 0.611, a relative viability ([14]; first compound 50 µM) of 0.589 and a relative viability ([14]; first compound 158.11 µM) of 0.469. It also gave a relative viability ([14]; first compound 500 µM) of 0.0534, a relative viability ([15]; first compound 5 µM) of 0.597 and a relative viability ([15]; first compound 15.81 µM) of 0.477. It also gave a relative viability ([15]; first compound 50 µM) of 0.638, a relative viability ([15]; first compound 158.11 µM) of 0.109 and a relative viability ([15]; first compound 500 µM) of 0.0271. For the same compound, the relative viability ([16]; first compound 5 µM) was 0.39, the relative viability ([16]; first compound 15.81 µM) was 0.4 and the relative viability ([16]; first compound 50 µM) was 0.415. It also gave a relative viability ([16]; first compound 158.11 µM) of 0.359, a relative viability ([16]; first compound 500 µM) of 0.116 and a relative viability ([17]; first compound 5 µM) of 0.355. The relative viability ([17]; first compound 15.81 µM) was 0.292, the relative viability ([17]; first compound 50 µM) was 0.278 and the relative viability ([17]; first compound 158.11 µM) was 0.255. For the same compound, the relative viability ([17]; first compound 500 µM) was 0.0276, the relative viability ([18]; first compound 5 µM) was 0.149 and the relative viability ([18]; first compound 15.81 µM) was 0.144. For the same compound, the relative viability ([18]; first compound 50 µM) was 0.154, the relative viability ([18]; first compound 158.11 µM) was 0.12 and the relative viability ([18]; first compound 500 µM) was 0.157. For the same compound, the relative viability ([19]; first compound 5 µM) was 0.203, the relative viability ([19]; first compound 15.81 µM) was 0.167 and the relative viability ([19]; first compound 158.11 µM) was 0.156. The relative viability ([19]; first compound 500 µM) was 0.206, the relative viability ([20]; first compound 5 µM) was 0.771 and the relative viability ([20]; first compound 15.81 µM) was 0.68. For the same compound, the relative viability ([20]; first compound 50 µM) was 0.807, the relative viability ([20]; first compound 158.11 µM) was 0.384 and the relative viability ([20]; first compound 500 µM) was 0.246. For the same compound, the relative viability ([21]; first compound 5 µM) was 0.493, the relative viability ([21]; first compound 15.81 µM) was 0.331 and the relative viability ([21]; first compound 50 µM) was 0.425. The relative viability ([21]; first compound 158.11 µM) was 0.388, the relative viability ([21]; first compound 500 µM) was 0.421 and the relative viability ([22]; first compound 5 µM) was 0.527. It also gave a relative viability ([22]; first compound 15.81 µM) of 0.423, a relative viability ([22]; first compound 50 µM) of 0.503 and a relative viability ([22]; first compound 158.11 µM) of 0.452. It also gave a relative viability ([22]; first compound 500 µM) of 0.495, a relative viability ([23]; first compound 5 µM) of 0.512 and a relative viability ([23]; first compound 15.81 µM) of 0.351. The relative viability ([23]; first compound 50 µM) was 0.404, the relative viability ([23]; first compound 158.11 µM) was 0.15 and the relative viability ([23]; first compound 500 µM) was 0.0576.
